Measured values published in paper PMC8887130 (Genes & Development, 2022).

Columns and labels:
CF II (hClp1-hPcf11) [1] = target: T1, CF II (hClp1-hPcf11) (Homo sapiens, UniProt Q92989); experiment: […]'-dATP titration in reconstituted pre-mRNA cleavage, half-maximal activation; format: biochemical
CF II (hClp1-hPcf11) [2] = target: CF II (hClp1-hPcf11) (Homo sapiens, UniProt Q92989, E22Q); experiment: biochemical
CF II (hClp1-hPcf11) [3] = target: CF II (hClp1-hPcf11) (Homo sapiens, UniProt Q92989, R288A/R293K); experiment: biochemical
CF II (hClp1-hPcf11) (Homo sapiens, UniProt Q92989, R288A/R293K), sequence (Q92989 whole entry R288A/R293K): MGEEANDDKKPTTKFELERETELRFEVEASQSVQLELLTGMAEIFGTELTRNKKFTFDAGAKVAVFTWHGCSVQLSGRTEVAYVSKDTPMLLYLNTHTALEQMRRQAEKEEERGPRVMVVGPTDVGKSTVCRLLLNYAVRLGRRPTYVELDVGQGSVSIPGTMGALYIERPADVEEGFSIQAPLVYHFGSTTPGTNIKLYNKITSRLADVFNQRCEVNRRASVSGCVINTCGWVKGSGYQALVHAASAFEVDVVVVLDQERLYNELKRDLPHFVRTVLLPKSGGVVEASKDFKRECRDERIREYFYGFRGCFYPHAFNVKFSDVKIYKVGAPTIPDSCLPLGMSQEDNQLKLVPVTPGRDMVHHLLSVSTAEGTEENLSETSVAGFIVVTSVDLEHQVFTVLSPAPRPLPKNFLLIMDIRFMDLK
CF II (hClp1-hPcf11) (Homo sapiens, UniProt Q92989, R288A/R293K), sequence (O94913 2-1555 partner): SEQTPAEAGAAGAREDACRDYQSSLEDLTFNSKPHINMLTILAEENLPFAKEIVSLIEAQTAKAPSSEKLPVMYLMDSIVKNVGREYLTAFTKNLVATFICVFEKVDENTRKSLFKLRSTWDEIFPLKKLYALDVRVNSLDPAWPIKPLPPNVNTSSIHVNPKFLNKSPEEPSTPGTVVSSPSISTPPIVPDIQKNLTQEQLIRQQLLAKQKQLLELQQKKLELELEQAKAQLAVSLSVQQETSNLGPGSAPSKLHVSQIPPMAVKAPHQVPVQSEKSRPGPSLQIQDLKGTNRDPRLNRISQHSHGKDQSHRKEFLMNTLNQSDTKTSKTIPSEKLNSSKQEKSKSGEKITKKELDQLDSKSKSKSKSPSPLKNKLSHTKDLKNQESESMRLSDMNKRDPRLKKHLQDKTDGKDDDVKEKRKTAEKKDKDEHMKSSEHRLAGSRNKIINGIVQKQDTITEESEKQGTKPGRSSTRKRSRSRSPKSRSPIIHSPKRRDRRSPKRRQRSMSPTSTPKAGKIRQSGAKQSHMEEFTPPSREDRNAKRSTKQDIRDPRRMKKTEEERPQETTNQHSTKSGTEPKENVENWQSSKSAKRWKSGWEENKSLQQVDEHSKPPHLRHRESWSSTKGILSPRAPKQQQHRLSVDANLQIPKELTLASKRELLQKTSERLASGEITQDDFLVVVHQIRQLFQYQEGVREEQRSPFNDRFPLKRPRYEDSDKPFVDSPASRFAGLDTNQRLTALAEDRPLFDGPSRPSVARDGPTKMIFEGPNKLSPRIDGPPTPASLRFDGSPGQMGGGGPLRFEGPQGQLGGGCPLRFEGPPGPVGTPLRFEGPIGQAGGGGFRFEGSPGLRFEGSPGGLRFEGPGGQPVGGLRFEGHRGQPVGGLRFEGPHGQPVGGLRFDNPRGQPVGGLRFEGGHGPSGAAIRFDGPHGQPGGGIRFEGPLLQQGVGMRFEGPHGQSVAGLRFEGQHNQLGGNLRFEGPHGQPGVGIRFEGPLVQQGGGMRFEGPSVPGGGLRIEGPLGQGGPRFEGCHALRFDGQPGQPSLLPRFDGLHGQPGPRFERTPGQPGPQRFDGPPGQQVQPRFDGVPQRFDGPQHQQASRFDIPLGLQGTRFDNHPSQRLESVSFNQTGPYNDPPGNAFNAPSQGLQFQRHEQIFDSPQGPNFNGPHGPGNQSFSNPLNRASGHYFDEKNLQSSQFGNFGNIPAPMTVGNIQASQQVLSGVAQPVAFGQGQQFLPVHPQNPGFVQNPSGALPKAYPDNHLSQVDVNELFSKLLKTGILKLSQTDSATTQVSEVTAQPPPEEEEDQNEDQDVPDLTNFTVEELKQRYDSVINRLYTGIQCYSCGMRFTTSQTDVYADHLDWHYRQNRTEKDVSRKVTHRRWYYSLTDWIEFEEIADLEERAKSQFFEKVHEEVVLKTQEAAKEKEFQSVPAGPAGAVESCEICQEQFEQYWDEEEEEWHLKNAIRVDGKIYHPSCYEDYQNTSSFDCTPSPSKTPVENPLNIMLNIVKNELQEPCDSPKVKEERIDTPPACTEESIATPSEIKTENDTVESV

CF II (hClp1-hPcf11) [4] = target: CF II (hClp1-hPcf11) (Homo sapiens, UniProt Q92989, E22A); experiment: biochemical
CF II (hClp1-hPcf11) (Homo sapiens, UniProt Q92989, E22A), sequence (Q92989 whole entry E22A): as the sequence (Q92989 whole entry R288A/R293K) above, with E22A, A288R, K293R counted along it
CF II (hClp1-hPcf11) (Homo sapiens, UniProt Q92989, E22A), sequence (O94913 2-1555 partner): as the sequence (O94913 2-1555 partner) above

CF II (hClp1-hPcf11) [5] = target: T1, CF II (hClp1-hPcf11); experiment: biochemical

T1 sequence (Q92989 whole entry): as the sequence (Q92989 whole entry R288A/R293K) above, with A288R, K293R counted along it
T1 sequence (O94913 2-1555 partner): as the sequence (O94913 2-1555 partner) above
CF II (hClp1-hPcf11) (Homo sapiens, UniProt Q92989, E22Q), sequence (Q92989 whole entry E22Q): as the sequence (Q92989 whole entry R288A/R293K) above, with E22Q, A288R, K293R counted along it
CF II (hClp1-hPcf11) (Homo sapiens, UniProt Q92989, E22Q), sequence (O94913 2-1555 partner): as the sequence (O94913 2-1555 partner) above

EC50 (CF II (hClp1-hPcf11) [1]) | EC50 (CF II (hClp1-hPcf11) [2]) | EC50 (CF II (hClp1-hPcf11) [3]) | EC50 (CF II (hClp1-hPcf11) [4]) | EC50 (CF II (hClp1-hPcf11) [5]) | Structure (SMILES)
46.3 ± 7.4 µM | – | – | – | – | Nc1ncnc2c1ncn2[C@@H]1O[C@H](COP(=O)(O)OP(=O)(O)OP(=O)(O)O)C[C@H]1O [3'-dATP]
– | 95.9 ± 19.8 µM | 5.7 ± 3.4 µM | 10.9 ± 2.7 µM | 0.5 ± 0.1 µM | Nc1ncnc2c1ncn2[C@@H]1O[C@H](COP(=O)(O)OP(=O)(O)OP(=O)(O)O)[C@@H](O)[C@H]1O [ATP]
